# Counter-ions that a name gives are not always drawn.
row,Structure (SMILES),melting point
1,"COc1cccc2sc([C@H]3CCN(C[C@H](O)COc4cccc5oc(C)cc45)[C@@H](C)C3)cc12 (as salt: oxalate) [Example 27, (2S)-(+)-3-[(2S,4S)-4-(4-Methoxybenzo[b]thiophen-2-yl)-2-methylpiperidin-1-yl]-1-(2-methylbenzofuran-4-yl)oxy-2-propanol]",98 °C (dec.)
2,"O=C(O)C(=O)O.O[C@H](COc1cccc2occc12)CN1CCC(c2cc3ccc(F)cc3s2)CC1 [Example 6, (2S)-(+)-1-(Benzofuran-4-yl)oxy-3-[4-(6-fluorobenzo[b]thiophen-2-yl)piperidinyl]-2-propanol Oxalate]",196 to 198 °C (dec.)
3,"COc1cccc2sc([C@@H]3CCN(C[C@H](O)COc4cccc5oc(C)cc45)[C@@H](C)C3)cc12 (as salt: oxalate) [Example 28, (2S)-(−)-3-[(2S,4R)-4-(4-Methoxybenzo[b]thiophen-2-yl)-2-methylpiperidin-1-yl]-1-(2-methylbenzofuran-4-yl)oxy-2-propanol]",99.2 to 103 °C
4,"COc1ccc2cc([C@@H]3CCN(C[C@H](O)COc4cccc5occc45)[C@H](C)C3)sc2c1.O=C(O)C(=O)O [Example 2, (2S)-(−)-1-(Benzofuran-4-yl)oxy-3-[(2R,4R)-4-(6-methoxybenzo[b]thiophen-2-yl)-2-methylpiperidinyl]-2-propanol Oxalate]",97 to 102 °C (dec.)
5,"COc1ccc2cc([C@H]3CCN(C[C@H](O)COc4cccc5occc45)[C@@H](C)C3)sc2c1.O=C(O)C(=O)O [Example 3, (2S)-(+)-1-(Benzofuran-4-yl)oxy-3-[(2S.4S)-4-(6-methoxybenzo[b]thiophen-2-yl)-2-methylpiperidinyl]-2-propanol Oxalate]",97 to 102 °C
6,"COc1ccc2cc([C@@H]3CCN(C[C@H](O)COc4cccc5occc45)[C@@H](C)C3)sc2c1.O=C(O)C(=O)O [Example 4, (2S)-1-(Benzofuran-4-yl)oxy-3-[(2S,4R)-4-(6-methoxybenzo[b]thiophen-2-yl)-2-methylpiperidinyl]-2-propanol Oxalate]",130 to 133 °C
7,"COc1cccc2sc(C3CCN(C[C@H](O)COc4cccc5c4OC(C)(C)C5)[C@@H](C)C3)cc12.O=C(O)C(=O)O (stereo in doubt) [Example 8, (2S)-(+)-1-(2,3-Dihydro-2,2-dimethylbenzofuran-7-yl)oxy-3-[(2S, 4R)-4-(4-methoxybenzo[b]thiophen-2-yl)-2-methylpiperidinyl]-2-propanol Oxalate]",145 to 148 °C
8,"COc1cccc2sc([C@H]3CCN(C[C@H](O)COc4cccc5c4OC(C)(C)C5)[C@H](C)C3)cc12.O=C(O)C(=O)O [Example 10, (2S)-1-(2,3-Dihydro-2,2-dimethylbenzofuran-7-yl)oxy-3-[(2R,4S)-4-(4-methoxybenzo[b]thiophen-2-yl)-2-methylpiperidinyl]-2-propanol Oxalate]",93 to 96 °C
9,"COc1cccc2sc([C@@H]3CCN(C[C@H](O)COc4cccc5c4OC(C)(C)C5)[C@@H](C)C3)cc12.O=C(O)C(=O)O [Example 9, (2S)-1-(2,3-Dihydro-2,2-dimethylbenzofuran-7-yl)oxy-3-[(2S,4R)-4-(4-methoxybenzo[b]thiophen-2-yl)-2-methylylpiperidinyl]-2-propanol Oxalate]",83 to 86 °C
10,"COc1cccc2sc([C@@H]3CCN(C[C@H](O)COc4cccc5oc(C)cc45)[C@H](C)C3)cc12 (as salt: oxalate) [Example 26, (2S)-(−)-3-[(2R,4R)-4-(4-Methoxybenzo[b]thiophen-2-yl)-2-methylpiperidin-1-yl]-1-(2-methylbenzofuran-4-yl)oxy-2-propanol]",101.2 to 109.5 °C
11,"COc1cccc2sc([C@@H]3CCN(C[C@H](O)COc4cccc5c4OC(C)(C)C5)[C@H](C)C3)cc12.O=C(O)C(=O)O [Example 7, (2S)-(−)-1-(2,3-Dihydro-2,2-dimethylbenzofuran-7-yl)oxy-3-[(2R,4R)-4-(4-methoxybenzo[b]thiophen-2-yl)-2-methylpiperidinyl]-2-propanol Oxalate]",88 to 93 °C

# The next lines start with the values.
row,melting point,Structure (SMILES)
1,83.5 °C (dec.),"COc1cccc2sc(C3CCN(C[C@H](O)COc4cccc5oc(C)cc45)C(C)(C)C3)cc12 (single isomer, unassigned; isomer 2) (as salt: hydrochloride) [Example 35]"
2,92.5 °C (dec.),"COc1cccc2sc([C@H]3CCN(C[C@H](O)COc4cccc5oc(C)cc45)[C@H](C)C3)cc12 (as salt: oxalate) [Example 29, (2S)-(+)-3-[(2R,4S)-4-(4-Methoxybenzo[b]thiophen-2-yl)-2-methylpiperidin-1-yl]-1-(2-methylbenzofuran-4-yl)oxy-2-propanol]"
3,101.1 °C (dec.),"COc1cccc2sc(C3CCN(C[C@H](O)COc4cccc5oc(C)cc45)C(C)(C)C3)cc12 (single isomer, unassigned; isomer 1) (as salt: hydrochloride) [Example 34]"
4,81.4 °C (dec.),"Cc1cc2c(OC[C@@H](O)CN3CC[C@H](c4cc5cc(Cl)ccc5s4)C[C@H]3C)cccc2o1 (as salt: salt) [Example 33, (2S)-(−)-3-[(2R,4S)-4-(5-Chloro-benzo[b]thiophen-2-yl)-2-methylpiperidin-1-yl]-1-(2-methylbenzofuran-4-yl)oxy-2-propanol]"
5,204.1 to 208.3 °C,"Cc1cc2c(OC[C@@H](O)CN3CC[C@H](c4cc5cc(Cl)ccc5s4)C[C@@H]3C)cccc2o1 (as salt: salt) [Example 31, (2S)-3-[(2S,4S)-4-(5-Chlorobenzo[b]thiophen-2-yl)-2-methylpiperidin-1-yl]-1-(2-methylbenzofuran-4-yl)oxy-2-propanol]"
6,78.5 °C (dec.),"Cc1cc2c(OC[C@@H](O)CN3CC[C@@H](c4cc5cc(Cl)ccc5s4)C[C@@H]3C)cccc2o1 (as salt: salt) [Example 32, (2S)-3-[(2S,4R)-4-(5-Chlorobenzo[b]thiophen-2-yl)-2-methylpiperidin-1-yl]-1-(2-methylbenzofuran-4-yl)oxy-2-propanol]"
7,88.5 °C (dec.),"Cc1cc2c(OC[C@@H](O)CN3CC[C@@H](c4cc5cc(Cl)ccc5s4)C[C@H]3C)cccc2o1 (as salt: salt) [Example 30, (2S)-(−)-3-[(2R,4R)-4-(5-Chlorobenzo[b]thiophen-2-yl)-2-methylpiperidin-1-yl]-1-(2-methylbenzofuran-4-yl)oxy-2-propanol]"

# Reference: patent US6844344B2, “Benzofuran derivatives” (Eli Lilly and Company, priority 1999, dated 2005)
